Experimental data from US20200339691A1, “PROTEINACEOUS MOLECULES AND USES THEREFOR” (priority 2018, published 2020).
Where a SMILES comes first, the peptide text is derived from it. The star is where a group is joined. Myristoyl = CCCCCCCCCCCCCC(=O)*

Legend:
[1] = test system: CD44^hiCD24^lo CSCs in MDA-MB-231 cells; test: FACS analysis of CD44^hiCD24^lo cancer stem cells in MDA-MB-231 cells treated with P1 analogues; format: cell-based, human; conditions: 50 μM peptide, 48 hours; for CD44^hiCD24^lo CSCs (%) / COI, Live Single CD44^hiCD24^lo CSCs (Cell Count): n = 1; for Average Inhibition of CSCs (%) / CD44^hiCD24^lo CSCs (%) Repeat 1 / CD44^hiCD24^lo CSCs (%) Repeat 2 / CD44^hiCD24^lo CSCs (%) Repeat 3: n = 3
Description: Analogues of P1 (Table 6) were designed and synthesized in accordance with the procedure of Example 5. The ability of these analogues to inhibit cancer stem cells was determined using FACS analysis on MDA-MB-231 cells, which constitutively contain approximately 90% CD44^hiCD24^lo cancer stem cells, treated with the peptides.
(§1) Non-adherent cells were removed during the washing steps.

MDA-MB-231 cells = format: cell-based, human; conditions: 50 μM peptide, 48 hours, n = 1
Text: as §1
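Throughout, for COI, Live Single Cells (Cell Count): live means Hoechst-negative events among single cells.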

| SMILES | Inhibition of CSCs (%) Repeat 1 [1] [%] | Inhibition of CSCs (%) Repeat 2 [1] [%] | Inhibition of CSCs (%) Repeat 3 [1] [%] | CD44^hiCD24^lo CSCs (%) [1] [%] | COI, Live Single CD44^hiCD24^lo CSCs (Cell Count) [1] | Average Inhibition of CSCs (%) [1] [%] | CD44^hiCD24^lo CSCs (%) Repeat 1 [1] [%] | CD44^hiCD24^lo CSCs (%) Repeat 2 [1] [%] | CD44^hiCD24^lo CSCs (%) Repeat 3 [1] [%] | COI (Cell Count) (MDA-MB-231 cells) | COI, Live Single Cells (Cell Count) (MDA-MB-231 cells) | COI, Single (Cell Count) (MDA-MB-231 cells) | Total Cell Count (MDA-MB-231 cells) |
| --- | --- | --- | --- | --- | --- | --- | --- | --- | --- | --- | --- | --- | --- |
| CCCCCCCCCCCCCC(=O)N[C@@H](C)C(=O)N[C@@H](Cc1ccccc1)C(=O)N[C@H](C(=O)N[C@@H](Cc1ccccc1)C(=O)N[C@@H](CCCNC(=N)N)C(=O)N[C@@H](CC(C)C)C(=O)N[C@@H](CCCNC(=N)N)C(=O)N[C@@H](CCCCN)C(=O)NCC(=O)N[C@@H](CCCNC(=N)N)C(=O)N[C@@H](CCSC)C(=O)N[C@@H](CCSC)C(=O)N[C@@H](CC(=O)O)C(=O)N[C@H](C(=O)N[C@@H](CCCCN)C(=O)N[C@@H](CCCCN)C(N)=O)C(C)C)[C@@H](C)CC [Peptide 2815302, Myristoyl-AFIFRLRKGRMMDVKK-NH2] (Myristoyl-AFIFRLRKGRMMDVKK-NH2) | 89.69 | 91.79 | 94.73 | 19.63 | 86 | 92.07 | 9.24 | 7.36 | 4.73 | 516 | 438 | 466 | 5074 |
| CCCCCCCCCCCCCC(=O)N[C@H](C(=O)N[C@@H](C)C(=O)N[C@H](C(=O)N[C@@H](Cc1ccccc1)C(=O)N[C@@H](CCCNC(=N)N)C(=O)N[C@@H](CC(C)C)C(=O)N[C@@H](CCCNC(=N)N)C(=O)N[C@@H](CCCCN)C(=O)NCC(=O)N[C@@H](CCCNC(=N)N)C(=O)N[C@@H](CCSC)C(=O)N[C@@H](CCSC)C(=O)N[C@@H](CC(=O)O)C(=O)N[C@H](C(=O)N[C@@H](CCCCN)C(=O)N[C@@H](CCCCN)C(N)=O)C(C)C)[C@@H](C)CC)[C@@H](C)O [Peptide 2815303, Myristoyl-TAIFRLRKGRMMDVKK-NH2] (Myristoyl-TAIFRLRKGRMMDVKK-NH2) | 76.31 | 81.14 | 80.95 | 25.00 | 2 | 79.47 | 21.23 | 16.92 | 17.09 | 18 | 8 | 17 | 10195 |
| CCCCCCCCCCCCCC(=O)N[C@H](C(=O)N[C@@H](Cc1ccccc1)C(=O)N[C@@H](C)C(=O)N[C@@H](Cc1ccccc1)C(=O)N[C@@H](CCCNC(=N)N)C(=O)N[C@@H](CC(C)C)C(=O)N[C@@H](CCCNC(=N)N)C(=O)N[C@@H](CCCCN)C(=O)NCC(=O)N[C@@H](CCCNC(=N)N)C(=O)N[C@@H](CCSC)C(=O)N[C@@H](CCSC)C(=O)N[C@@H](CC(=O)O)C(=O)N[C@H](C(=O)N[C@@H](CCCCN)C(=O)N[C@@H](CCCCN)C(N)=O)C(C)C)[C@@H](C)O [Peptide 2815304, Myristoyl-TFAFRLRKGRMMDVKK-NH2] (Myristoyl-TFAFRLRKGRMMDVKK-NH2) | 43.62 | 47.79 | 51.20 | 68.03 | 83 | 47.54 | 50.53 | 46.84 | 43.79 | 157 | 122 | 137 | 4317 |
| CCCCCCCCCCCCCC(=O)N[C@H](C(=O)N[C@@H](Cc1ccccc1)C(=O)N[C@H](C(=O)N[C@@H](C)C(=O)N[C@@H](CCCNC(=N)N)C(=O)N[C@@H](CC(C)C)C(=O)N[C@@H](CCCNC(=N)N)C(=O)N[C@@H](CCCCN)C(=O)NCC(=O)N[C@@H](CCCNC(=N)N)C(=O)N[C@@H](CCSC)C(=O)N[C@@H](CCSC)C(=O)N[C@@H](CC(=O)O)C(=O)N[C@H](C(=O)N[C@@H](CCCCN)C(=O)N[C@@H](CCCCN)C(N)=O)C(C)C)[C@@H](C)CC)[C@@H](C)O [Peptide 2815305, Myristoyl-TFIARLRKGRMMDVKK-NH2] (Myristoyl-TFIARLRKGRMMDVKK-NH2) | 7.19 | 10.83 | 2.94 | 93.18 | 82 | 6.99 | 83.18 | 80.00 | 87.10 | 129 | 88 | 121 | 2870 |
| CCCCCCCCCCCCCC(=O)N[C@H](C(=O)N[C@@H](Cc1ccccc1)C(=O)N[C@H](C(=O)N[C@@H](Cc1ccccc1)C(=O)N[C@@H](C)C(=O)N[C@@H](CC(C)C)C(=O)N[C@@H](CCCNC(=N)N)C(=O)N[C@@H](CCCCN)C(=O)NCC(=O)N[C@@H](CCCNC(=N)N)C(=O)N[C@@H](CCSC)C(=O)N[C@@H](CCSC)C(=O)N[C@@H](CC(=O)O)C(=O)N[C@H](C(=O)N[C@@H](CCCCN)C(=O)N[C@@H](CCCCN)C(N)=O)C(C)C)[C@@H](C)CC)[C@@H](C)O [Peptide 2815306, Myristoyl-TFIFALRKGRMMDVKK-NH2] (Myristoyl-TFIFALRKGRMMDVKK-NH2) | 67.33 | 69.17 | 70.79 | 27.73 | 66 | 69.09 | 29.28 | 27.66 | 26.21 | 323 | 238 | 280 | 9352 |
| CCCCCCCCCCCCCC(=O)N[C@H](C(=O)N[C@@H](Cc1ccccc1)C(=O)N[C@H](C(=O)N[C@@H](Cc1ccccc1)C(=O)N[C@@H](CCCNC(=N)N)C(=O)N[C@@H](C)C(=O)N[C@@H](CCCNC(=N)N)C(=O)N[C@@H](CCCCN)C(=O)NCC(=O)N[C@@H](CCCNC(=N)N)C(=O)N[C@@H](CCSC)C(=O)N[C@@H](CCSC)C(=O)N[C@@H](CC(=O)O)C(=O)N[C@H](C(=O)N[C@@H](CCCCN)C(=O)N[C@@H](CCCCN)C(N)=O)C(C)C)[C@@H](C)CC)[C@@H](C)O [Peptide 2815307, Myristoyl-TFIFRARKGRMMDVKK-NH2] (Myristoyl-TFIFRARKGRMMDVKK-NH2) | 24.79 | 25.54 | 36.94 | 62.77 | 86 | 29.09 | 67.40 | 66.80 | 56.59 | 182 | 137 | 164 | 10681 |
| CCCCCCCCCCCCCC(=O)N[C@H](C(=O)N[C@@H](Cc1ccccc1)C(=O)N[C@H](C(=O)N[C@@H](Cc1ccccc1)C(=O)N[C@@H](CCCNC(=N)N)C(=O)N[C@@H](CC(C)C)C(=O)N[C@@H](C)C(=O)N[C@@H](CCCCN)C(=O)NCC(=O)N[C@@H](CCCNC(=N)N)C(=O)N[C@@H](CCSC)C(=O)N[C@@H](CCSC)C(=O)N[C@@H](CC(=O)O)C(=O)N[C@H](C(=O)N[C@@H](CCCCN)C(=O)N[C@@H](CCCCN)C(N)=O)C(C)C)[C@@H](C)CC)[C@@H](C)O [Peptide 2815308, Myristoyl-TFIFRLAKGRMMDVKK-NH2] (Myristoyl-TFIFRLAKGRMMDVKK-NH2) | 51.70 | 45.08 | 50.47 | 54.60 | 89 | 49.08 | 43.29 | 49.27 | 44.44 | 340 | 163 | 301 | 9921 |
